Measured values reported in patent US11415579B2, “Assay for measuring a rate of reaction between a target and a ligand candidate” (Imperial College Innovations Ltd., priority 2016, dated 2022).

Experiments:
[1] = Kinetic thiol consumption assay with model thiol glutathione; format: physicochemical; parameters: Rate constant with glutathione (k(GSH)): unit not given here; conditions: for Rate constant with glutathione (k(GSH)): 500 μM ligand, 5 μM thiol, phosphate buffer pH 8; for Rate constant with Glutathione: Protein: Glutathione, cysteine position NA, in h-1
Procedure, shortened: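 Rate constants for acrylamide reaction with 5 μM glutathione come from first-order exponential fits of normalized fluorescence decay (ex 380, em 470 nm). Reactions run in degassed phosphate buffer at pH 8 containing TCEP beads, room temperature.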

[2] = biological target: T1, human cyclin-dependent kinase 2 (Cdk2) (Homo sapiens, UniProt P24941); assay: Kinetic thiol consumption assay with wild type Cdk2 (C177); format: binding; parameters: key to Rate enhancement, Cdk2 WT: k(Cdk2) divided by k(model thiol); Rate constant with Cdk2 (k(Cdk2)): unit not given here; conditions: for Rate constant with Cdk2 (k(Cdk2)): 500 μM ligand, 5 μM thiol, phosphate buffer pH 8; for Rate enhancement, Cdk2 WT: no additional mutations; for Rate constant with Cdk2 WT: Protein: Cdk2, cysteine position WT, in h^-1; for k(Cdk2)/k(GSH) rate enhancement: model thiol glutathione
T1 construct: poly-histidine; made in house; host or cells: E. coli
Procedure, shortened: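 Rate enhancement: first-order decay constant with Cdk2 over that with a model thiol. Thiols (5 μM, degassed phosphate buffer pH 8, immobilized TCEP) were incubated with acrylamides at room temperature, and thiol consumption followed by fluorescence at 380/470 nm, normalized to DMSO control. Cdk2 was His-tagged, E. coli-expressed, with one surface cysteine (C177).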

Cdk2(C177A, F80C) = biological target: T2, Cdk2(C177A, F80C) (Homo sapiens, UniProt P24941, C177A/F80C); assay: Kinetic thiol consumption assay with Cdk2 mutant F80C, incl. kobs versus concentration (Kd, k2); format: binding; parameters: key to Rate enhancement, Cdk2 F80C: Cdk2 rate constant divided by model-thiol rate constant; conditions: additional mutation C177A; for Rate constant with Cdk2 F80C: Protein: Cdk2, cysteine position F80C, in h^-1
T2 construct: poly-histidine; made in house; host or cells: E. coli
Procedure, shortened: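 His-tagged Cdk2(C177A/F80C) from E. coli or model thiol, 5 μM in degassed phosphate buffer pH 8 with TCEP beads, reacted with acrylamide ligands; fluorescence (ex/em 380/470 nm) normalized to DMSO control and fitted to first-order decay for kobs. Kd and k2 obtained from hyperbolic fit of kobs versus ligand concentration.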

Cdk2(H71C) (C177A) = biological target: T3, Cdk2(H71C) (C177A) (Homo sapiens, UniProt P24941, C177A/H71C); assay: Kinetic thiol consumption assay with Cdk2 mutant H71C; format: binding; parameters: key to Rate enhancement, Cdk2 H71C: rate constant with Cdk2 ÷ rate constant with model thiol (fold); conditions: additional mutation C177A; for Rate constant with Cdk2 H71C: Protein: Cdk2, cysteine position H71C, in h^-1
T3 construct: poly-histidine; made in house; host or cells: E. coli
Procedure, shortened: (§1)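 Read-out is fluorescence at 380/470 nm, taken after 1 h at room temperature and normalized to a DMSO/thiol-only control over time. Thiol (5 μM Cdk2 mutant or model thiol) was in degassed pH 8 phosphate buffer with 2% v/v TCEP beads. Acrylamide rate constants for Cdk2 were divided by those with model thiol.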

Cdk2(S276C) (C177A) = biological target: T4, Cdk2(S276C) (C177A) (Homo sapiens, UniProt P24941, C177A/S276C); assay: Kinetic thiol consumption assay with Cdk2 mutant S276C; format: binding; parameters: key to Rate enhancement, Cdk2 S276C: rate constant with Cdk2 ÷ rate constant with model thiol (fold); conditions: additional mutation C177A; for Rate constant with Cdk2 S276C: Protein: Cdk2, cysteine position S276C, in h^-1
T4 construct: poly-histidine; made in house; host or cells: E. coli
Procedure, shortened: as §1

Cdk2(N272C) (C177A) = biological target: T5, Cdk2(N272C) (C177A) (Homo sapiens, UniProt P24941, C177A/N272C); assay: Kinetic thiol consumption assay with Cdk2 mutant N272C; format: binding; parameters: key to Rate enhancement, Cdk2 N272: rate constant with Cdk2 ÷ rate constant with model thiol (fold); conditions: for Rate enhancement, Cdk2 N272: Cdk2 N272, additional mutation C177A; for Rate constant with Cdk2 N272C: Protein: Cdk2, cysteine position N272C, additional mutation C177A, in h^-1
T5 construct: poly-histidine; made in house; host or cells: E. coli
Procedure, shortened: as §1

Cdk2(T182C) (C177A) = biological target: T6, Cdk2(T182C) (C177A) (Homo sapiens, UniProt P24941, C177A/T182C); assay: Kinetic thiol consumption assay with Cdk2 mutant T182C; format: binding; parameters: key to Rate enhancement, Cdk2 T182C: rate constant with Cdk2 ÷ rate constant with model thiol (fold); conditions: additional mutation C177A; for Rate constant with Cdk2 T182C: Protein: Cdk2, cysteine position T182C, in h^-1
T6 construct: poly-histidine; made in house; host or cells: E. coli
Procedure, shortened: as §1

Cdk2(R122C) (C177A) = biological target: T7, Cdk2(R122C) (C177A) (Homo sapiens, UniProt P24941, C177A/R122C); assay: Kinetic thiol consumption assay with Cdk2 mutant R122C; format: binding; parameters: key to Rate enhancement, Cdk2 R122C: rate constant with Cdk2 ÷ rate constant with model thiol (fold); conditions: additional mutation C177A; for Rate constant with Cdk2 R122C: Protein: Cdk2, cysteine position R122C, in h-1
T7 construct: poly-histidine; made in house; host or cells: E. coli
Procedure, shortened: as §1

Cdk2(S181C) (C177A) = biological target: T8, Cdk2(S181C) (C177A) (Homo sapiens, UniProt P24941, C177A/S181C); assay: Kinetic thiol consumption assay with Cdk2 mutant S181C; format: binding; parameters: key to Rate enhancement, Cdk2 S181C: rate constant with Cdk2 ÷ rate constant with model thiol (fold); conditions: additional mutation C177A; for Rate constant with Cdk2 S181C: Protein: Cdk2, cysteine position S181C, in h^-1
T8 construct: poly-histidine; made in house; host or cells: E. coli
Procedure, shortened: as §1

SMILES | Rate constant with glutathione (k(GSH)) [1] | Rate constant with Glutathione [1] | Rate constant with Cdk2 (k(Cdk2)) [2] | Rate enhancement, Cdk2 WT [2] | Rate constant with Cdk2 WT [2] | k(Cdk2)/k(GSH) rate enhancement [2] | Rate enhancement, Cdk2 F80C (Cdk2(C177A, F80C)) | Rate constant with Cdk2 F80C (Cdk2(C177A, F80C)) | Rate enhancement, Cdk2 H71C (Cdk2(H71C) (C177A)) | Rate enhancement, Cdk2 S276C (Cdk2(S276C) (C177A)) | Rate constant with Cdk2 S276C (Cdk2(S276C) (C177A)) | Rate enhancement, Cdk2 N272 (Cdk2(N272C) (C177A)) | Rate constant with Cdk2 N272C (Cdk2(N272C) (C177A)) | Rate enhancement, Cdk2 T182C (Cdk2(T182C) (C177A)) | Rate constant with Cdk2 T182C (Cdk2(T182C) (C177A)) | Rate enhancement, Cdk2 R122C (Cdk2(R122C) (C177A)) | Rate constant with Cdk2 R122C (Cdk2(R122C) (C177A)) | Rate enhancement, Cdk2 S181C (Cdk2(S181C) (C177A)) | Rate constant with Cdk2 S181C (Cdk2(S181C) (C177A)) | Rate constant with Cdk2 H71C (Cdk2(H71C) (C177A))
C#CCN1CCCN(C(=O)C=C)CC1 [CA-196] | 0.00365 | 0.003626 | 0.00372 | 1.03 | 0.003735 | 1.021 | 0.4719 | 0.001711 | 0 | 0.4186 | 0.001518 | 0.8296 | 0.003008 | 2.74 | 0.009935 | 0.7394 | 0.002681 | 0.7592 | 0.002753 | –
C=CC(=O)NC1(C(N)=O)CCCCC1 [EL-1170] | 0.00243 | 0.002427 | 0.00308 | 1.986 | 0.004821 | 1.271 | 0.5052 | 0.001226 | 0 | 0.3126 | 0.0007587 | 0.3641 | 0.0008836 | 0.5731 | 0.001391 | 0.304 | 0.0007379 | 0.953 | 0.002313 | –
C=CS(=O)(=O)c1ccccc1 [EN001] | – | 6.115 | – | 1.608 | 9.832 | – | 0.0006656 | 0.00407 | 0.3485 | 0.5145 | 3.146 | 0.3977 | 2.432 | 1.394 | 8.524 | 0.2211 | 1.352 | 0.06554 | 0.4008 | 2.131
O=C(CCl)N1CCSc2ccccc21 [EN004] | – | 0.366 | – | 4.361 | 1.596 | – | 0.01666 | 0.006096 | 0.3522 | 4.615 | 1.689 | 0.243 | 0.08895 | 0 | – | 0.1248 | 0.04566 | 0.08978 | 0.03286 | 0.1289
O=C(CCl)NCCc1c[nH]c2ccccc12 [EN005] | – | 0.002533 | – | 6.167 | 0.01562 | – | 0.8693 | 0.002202 | 0.852 | 13.55 | 0.03433 | 0 | – | 11.33 | 0.02869 | 0.5681 | 0.001439 | 5.886 | 0.01491 | 0.002158
O=C(c1ccccc1)[C@@H]1O[C@H]1c1ccccc1 [EN006] | – | 0.002219 | – | 1.315 | 0.002918 | – | 7.7693E−12 | 1.724E−14 | 12.95 | 74.76 | 0.1659 | 5.777 | 0.01282 | 34.33 | 0.07618 | 0.411 | 0.000912 | 4.709 | 0.01045 | 0.02873
O=S1(=O)C=CC(Br)C1 (stereo not shown) [EN010] | – | 0.603 | – | 2.833 | 1.708 | – | 0.00861 | 0.005192 | 0.1025 | 0.9531 | 0.5747 | 0.198 | 0.1194 | 4.219 | 2.544 | 0.3799 | 0.2291 | 0.3144 | 0.1896 | 0.06183
